According to ChEMBL document CHEMBL4342474, “Scaffold and Parasite Hopping: Discovery of New Protozoal Proliferation Inhibitors” (ACS Med Chem Lett, 2020):

Tests used:
Trypanosoma cruzi = assay: Antitrypanosomal activity against Trypanosoma cruzi CaI-72 trypomastigotes infected in mouse C2C12 cells measured after 72 hrs by DAPI staining based assay; assay type: functional, organism-based; conditions: CaI-72, C2C12, 72 h
Leishmania major = assay: Antileishmanial activity against Leishmania major amastigotes infected in mouse RAW 264.7 cells by luciferase reporter gene assay; assay type: functional, organism-based; conditions: RAW264.7
Plasmodium falciparum = assay: Antiplasmodial activity against Plasmodium falciparum D6 measured after 72 hrs by SYBR green fluorescence dye based microplate reader analysis; assay type: functional, organism-based; conditions: D6, 72 h
[1] = Selectivity index, ratio of TC50 for human HepG2 cells to EC50 for antiplasmodial activity against Plasmodium falciparum D6; assay type: toxicity
Leishmania donovani = assay: Antileishmanial activity against Leishmania donovani infected in mouse B10R cells after 72 hrs by DAPI staining based assay; assay type: functional, organism-based
[2] = Selectivity index, ratio of TC50 for mouse C2C12 cells to EC50 for antitrypanosomal activity against Trypanosoma cruzi CaI-72 trypomastigotes infected in mouse C2C12 cells; assay type: toxicity, cell-based

CN1CCCN(c2ncc(-c3ccc4c(Nc5cccnc5)ccnc4c3)cn2)CC1
EC50 (Trypanosoma cruzi): > 10 µM
EC50 (Leishmania major): > 22 µM
EC50 (Plasmodium falciparum): 0.025 µM
selectivity ratio [1]: > 1320
EC50 (Leishmania donovani): > 10 µM

CN1CCN(c2ccc(Nc3ccc4c(Nc5cnccn5)ccnc4c3)cc2)CC1
EC50 (Leishmania major): 7.9 µM
EC50 (Plasmodium falciparum): 0.13 µM

CN1CCN(c2ncc(-c3ccc4c(NCC5CCOCC5)ccnc4c3)cn2)CC1
EC50 (Trypanosoma cruzi): 1.2 µM
selectivity ratio [2]: 3.2
EC50 (Leishmania major): > 24 µM
EC50 (Plasmodium falciparum): 0.026 µM
selectivity ratio [1]: 615
EC50 (Leishmania donovani): 8.7 µM

CN1CCCN(c2ncc(-c3ccc4c(Nc5ccccn5)ccnc4c3)cn2)CC1
EC50 (Trypanosoma cruzi): 1.3 µM
selectivity ratio [2]: 7.5
EC50 (Leishmania major): > 24 µM
EC50 (Plasmodium falciparum): 0.039 µM
selectivity ratio [1]: 487
EC50 (Leishmania donovani): > 10 µM

COc1ccc(NC(=O)c2cc(F)c(N3CCCN(C)CC3)cc2F)cc1Cl
EC50 (Trypanosoma cruzi): 5.5 µM
selectivity ratio [2]: 1.6
EC50 (Leishmania major): > 24 µM
EC50 (Plasmodium falciparum): 4.6 µM
selectivity ratio [1]: > 5.2

CN1CCCN(c2ncc(-c3ccc(C(=O)Nc4cccc(Cl)c4F)c(O)c3)cn2)CC1
EC50 (Trypanosoma cruzi): 3.9 µM
selectivity ratio [2]: 1.6
EC50 (Leishmania major): > 2.2 µM
EC50 (Plasmodium falciparum): 0.071 µM
selectivity ratio [1]: > 310

Cc1cnc(Nc2ccnc3cc(-c4cnc(N5CCCN(C)CC5)nc4)ccc23)cn1
EC50 (Leishmania major): > 23 µM
EC50 (Plasmodium falciparum): 0.024 µM

CN1C[C@H]2C[C@@H]1CN2c1ncc(-c2ccc3c(Nc4cnccn4)ccnc3c2)cn1
EC50 (Trypanosoma cruzi): 6.1 µM
EC50 (Leishmania major): 2.6 µM
EC50 (Plasmodium falciparum): 0.052 µM

CN1CCN(c2ncc(-c3ccc4c(NC5CCC(N(C)C)CC5)ccnc4c3)cn2)CC1 (stereo not given)
EC50 (Trypanosoma cruzi): > 10 µM
EC50 (Leishmania major): > 2.2 µM
EC50 (Plasmodium falciparum): 0.053 µM
EC50 (Leishmania donovani): > 10 µM

CN1CCCN(c2ncc(-c3ccc4c(Nc5cnccn5)ccnc4c3)cn2)CC1
EC50 (Trypanosoma cruzi): 1.2 µM
EC50 (Leishmania major): 24 µM
EC50 (Plasmodium falciparum): 0.024 µM

CN1CCCN(c2ncc(-c3ccc4c(c3)ncc3c5ccccc5[nH]c43)cn2)CC1
EC50 (Trypanosoma cruzi): 0.24 µM
selectivity ratio [2]: 6.7
EC50 (Leishmania major): > 5 µM
EC50 (Plasmodium falciparum): 0.046 µM
selectivity ratio [1]: > 161

O=S(=O)(c1ccc(-c2ccc3nccc(NCCC4CCOCC4)c3c2)cc1)N1CCOCC1
EC50 (Trypanosoma cruzi): 4.7 µM
selectivity ratio [2]: 1.3
EC50 (Leishmania major): > 21 µM
EC50 (Plasmodium falciparum): 0.075 µM
selectivity ratio [1]: > 280
EC50 (Leishmania donovani): > 10 µM

CN1CC2(CCN(c3ncc(-c4ccc5c(Nc6cnccn6)ccnc5c4)cn3)C2)C1
EC50 (Trypanosoma cruzi): 0.22 µM
selectivity ratio [2]: 1.9
EC50 (Leishmania major): > 24 µM
EC50 (Plasmodium falciparum): 0.058 µM
selectivity ratio [1]: > 414

CN1CCN(c2ncc(-c3ccc4c(NCCN5CCCC5)ccnc4c3)cn2)CC1
EC50 (Trypanosoma cruzi): 2.1 µM
EC50 (Leishmania major): > 24 µM
EC50 (Plasmodium falciparum): 0.024 µM
EC50 (Leishmania donovani): > 10 µM

CN1CCN(c2ncc(-c3ccc4c(NC5CCOCC5)ccnc4c3)cn2)CC1
EC50 (Trypanosoma cruzi): > 10 µM
EC50 (Leishmania major): > 25 µM
EC50 (Plasmodium falciparum): 0.025 µM
selectivity ratio [1]: 600
EC50 (Leishmania donovani): 4 µM

CCN1CCN(c2ncc(-c3ccc4c(Nc5cnccn5)ccnc4c3)cn2)CC1
EC50 (Trypanosoma cruzi): 7.7 µM
EC50 (Leishmania major): 24 µM
EC50 (Plasmodium falciparum): 0.029 µM

CN1CCC2(CCN(c3ncc(-c4ccc5c(Nc6cnccn6)ccnc5c4)cn3)C2)C1 (stereo not given)
EC50 (Trypanosoma cruzi): 0.52 µM
selectivity ratio [2]: 19
EC50 (Leishmania major): > 23 µM
EC50 (Plasmodium falciparum): 0.03 µM
selectivity ratio [1]: 533

CCCN1CCN(c2ncc(-c3ccc4c(Nc5cnccn5)ccnc4c3)cn2)CC1
EC50 (Trypanosoma cruzi): 7.6 µM
EC50 (Leishmania major): 4.3 µM
EC50 (Plasmodium falciparum): 0.023 µM

O=S(=O)(c1ccc(-c2ccc3nccc(NCCN4CCCC4)c3c2)cc1)N1CCOCC1
EC50 (Trypanosoma cruzi): 1.9 µM
selectivity ratio [2]: 0.89
EC50 (Leishmania major): > 21 µM
EC50 (Plasmodium falciparum): 0.03 µM
selectivity ratio [1]: 307

CN1CCN(c2ncc(-c3ccc4c(N[C@@H]5CCCC[C@H]5O)ccnc4c3)cn2)CC1
EC50 (Trypanosoma cruzi): > 10 µM
EC50 (Leishmania major): > 2.4 µM
EC50 (Plasmodium falciparum): 0.037 µM
EC50 (Leishmania donovani): > 10 µM

COc1ccc(NC(=O)c2ccc(-c3cnc(N4CCCN(C)CC4)nc3)cc2O)cc1Cl
EC50 (Trypanosoma cruzi): > 10 µM
EC50 (Leishmania major): > 4.3 µM
EC50 (Plasmodium falciparum): 0.088 µM
EC50 (Leishmania donovani): > 10 µM
